These results are taken from PubChem BioAssay AID328 (DTP/NCI, 2004).

Structures are written as SMILES. “And” between values parts separate entries of the source, which are not always exact repeats. Equal entries are not always repeated. Inconclusive results and toxic doses are left out. Residues, ends and D or L forms follow the SMILES beside them.

The subject of this test is BDF1 mice, P388 leukemia ip, median survival T/C. The test is described as follows: NCI In Vivo Anticancer Drug Screen. Data for tumor model P388 Leukemia (intraperitoneal) in B6D2F1 (BDF1) mice. To be noted: endpoint: median survival time, higher = longer survival. A digest of the protocol: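 Read-out is survival of treated animals expressed relative to the vehicle group, as a T/C ratio.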

Where [1] appears, read: dose: 50.0 mg/kg/injection, schedule: Q01DX009 (ip), vehicle: saline.
[2] abbreviates: dose: 100.0 mg/kg/injection, schedule: Q01DX009 (ip), vehicle: saline.
The mark [3] stands for this setting: dose: 100.0 mg/kg/injection, schedule: Q04DX003 (ip), vehicle: saline.
Setting [4] is: dose: 200.0 mg/kg/injection, schedule: Q04DX003 (ip), vehicle: saline.
The mark [5] stands for this setting: dose: 25.0 mg/kg/injection, schedule: Q01DX009 (ip), vehicle: saline with Tween-80.
Setting [6] is: dose: 50.0 mg/kg/injection, schedule: Q01DX009 (ip), vehicle: saline with Tween-80.
Setting [7] is: dose: 100.0 mg/kg/injection, schedule: Q01DX009 (ip), vehicle: saline with Tween-80.
[8] abbreviates: dose: 200.0 mg/kg/injection, schedule: Q01DX009 (ip), vehicle: saline with Tween-80.
Where [9] appears, read: dose: 100.0 mg/kg/injection, schedule: Q04DX003 (ip), vehicle: Klucel (hydroxypropylcellulose) (HPC).
Where [10] appears, read: dose: 200.0 mg/kg/injection, schedule: Q04DX003 (ip), vehicle: Klucel (hydroxypropylcellulose) (HPC).
Setting [11] is: dose: 400.0 mg/kg/injection, schedule: Q04DX003 (ip), vehicle: Klucel (hydroxypropylcellulose) (HPC).

On to `O=CC1(C(O)C2SCCCS2)SCCCS1` (stereo not given), for which the T/C is, setting by setting: (dose: 12.5 mg/kg/injection, schedule: Q01DX001 (ip), vehicle: other) 95 % of control; (dose: 25.0 mg/kg/injection, schedule: Q01DX001 (ip), vehicle: other) 104 % of control; (dose: 50.0 mg/kg/injection, schedule: Q01DX001 (ip), vehicle: other) 109 % of control.
Consider `BrCc1cc2ccccc2cc1CBr`, for which the T/C (dose: 25.0 mg/kg/injection, schedule: Q04DX003 (ip), vehicle: saline) was 116 % of control.
`O=[N+]([O-])c1cccc(/C=C/C=C/c2ccc(S(=O)(=O)F)cc2Cl)c1`: the T/C is, setting by setting: (dose: 100.0 mg/kg/injection, schedule: Q01DX001 (ip), vehicle: Klucel (hydroxypropylcellulose) (HPC)) 100 % of control; (dose: 200.0 mg/kg/injection, schedule: Q01DX001 (ip), vehicle: Klucel (hydroxypropylcellulose) (HPC)) 95 % of control; (dose: 400.0 mg/kg/injection, schedule: Q01DX001 (ip), vehicle: Klucel (hydroxypropylcellulose) (HPC)) 95 % of control.
As for `CCOC(=O)CN(C)C#N`, the T/C is 110 % of control under setting [1]; 109 % of control (dose: 87.5 mg/kg/injection, schedule: Q01DX009 (ip), vehicle: saline); 105 % of control under setting [2]; 104 % of control under setting [3]; 104 % of control (dose: 175.0 mg/kg/injection, schedule: Q01DX009 (ip), vehicle: saline); 104 % of control under setting [4]. Besides, the T/C was 109 % of control (dose: 265.0 mg/kg/injection, schedule: Q01DX009 (ip), vehicle: saline); 95 % of control (dose: 400.0 mg/kg/injection, schedule: Q01DX009 (ip), vehicle: saline); 104 % of control (dose: 400.0 mg/kg/injection, schedule: Q04DX003 (ip), vehicle: saline).
Turning to `O=C1NC(=O)C2(CCc3ccccc3C2)N1` (stereo not given), the T/C is 97 % of control under setting [5]; 99 % of control and 107 % of control under setting [6]; 96 % of control and 104 % of control under setting [7]; 96 % of control and 97 % of control under setting [8]; 92 % of control (dose: 400.0 mg/kg/injection, schedule: Q01DX009 (ip), vehicle: saline with Tween-80).
Consider `O=[N+]([O-])c1cccc(O)c1`, for which the T/C is 100 % of control (dose: 100.0 mg/kg/injection, schedule: Q01DX001 (ip), vehicle: saline); 109 % of control under setting [7]; 118 % of control under setting [3]; 100 % of control (dose: 200.0 mg/kg/injection, schedule: Q01DX001 (ip), vehicle: saline); 86 % of control under setting [8]; 100 % of control under setting [4]. The T/C (dose: 400.0 mg/kg/injection, schedule: Q01DX001 (ip), vehicle: saline) was 100 % of control.
For `Fc1ccc(NC(=S)SCc2ccc3c(c2)OCO3)cc1F`, the T/C is 116 % of control (dose: 50.0 mg/kg/injection, schedule: Q01DX009 (ip), vehicle: saline + alcohol); 109 % of control under setting [6]; 116 % of control (dose: 100.0 mg/kg/injection, schedule: Q01DX009 (ip), vehicle: saline + alcohol); 116 % of control under setting [7]; 155 % of control under setting [8].
For `Cc1ccc(C(SCC(N)C(=O)O)(c2ccc(C)cc2)c2ccc(C)cc2)cc1` (stereo not given), the T/C (dose: 65.0 mg/kg/injection, schedule: Q04DX003 (ip), vehicle: Klucel (hydroxypropylcellulose) (HPC)) was 159 % of control; the T/C under setting [9] was 175 % of control; the T/C under setting [10] was 185 % of control; the T/C (dose: 264.0 mg/kg/injection, schedule: Q04DX003 (ip), vehicle: Klucel (hydroxypropylcellulose) (HPC)) was 230 % of control and 150 % of control; the T/C under setting [11] is 177 % of control and 190 % of control (2×).
`O=C(c1ccccc1)C1(Br)CCC1`: the T/C runs as follows: (dose: 100.0 mg/kg/injection, schedule: Q01DX009 (ip), vehicle: saline sonified) 91 % of control; (dose: 200.0 mg/kg/injection, schedule: Q01DX009 (ip), vehicle: saline sonified) 100 % of control; (dose: 400.0 mg/kg/injection, schedule: Q01DX009 (ip), vehicle: saline sonified) 95 % of control.
With `CC(NC(=O)C(C)NC(=O)C(N)CCS(C)(=O)=NP(=O)(O)O)C(=O)O` (stereo not given), the T/C is, setting by setting: (dose: 12.5 mg/kg/injection, schedule: Q01DX009 (ip), vehicle: saline) 101 % of control; (dose: 25.0 mg/kg/injection, schedule: Q01DX009 (ip), vehicle: saline) 110 % of control.
Turning to `CC(C)C(NC(=O)C(NC(=O)C(CCCN=C(N)N)NC(=O)C(N)CCCCN)C(C)C)C(N)=O` (stereo not given) (H-KRVV-NH2; configuration not given here), the T/C is 101 % of control (dose: 12.5 mg/kg/injection, schedule: Q04DX003 (ip), vehicle: water); 97 % of control (dose: 25.0 mg/kg/injection, schedule: Q04DX003 (ip), vehicle: water); 107 % of control (dose: 50.0 mg/kg/injection, schedule: Q04DX003 (ip), vehicle: water); 92 % of control (dose: 100.0 mg/kg/injection, schedule: Q04DX003 (ip), vehicle: water); 93 % of control (dose: 200.0 mg/kg/injection, schedule: Q04DX003 (ip), vehicle: water).
For `CN(C)CCCNc1nc(NCCCN(C)C)c2nc(-c3ccccc3)c(-c3ccccc3)nc2n1`, the T/C (dose: 50.0 mg/kg/injection, schedule: Q01DX005 (ip), vehicle: saline with Tween-80) was 104 % of control.
In the case of `CCOC(=O)C(CC)(CCC(C)C)C(=O)OCC`, the T/C under setting [5] was 95 % of control, the T/C under setting [6] was 95 % of control and the T/C under setting [7] is 100 % of control.
As for `CC(=O)C1CCCC23CC(CC12)C(C)(C)C3OC=O` (stereo not given), the T/C runs as follows: under setting [9], 90 % of control; under setting [10], 100 % of control; under setting [11], 109 % of control.
In the case of `N#Cc1ccc(OC(=O)c2ccc(N=C(N)N)cc2)cc1`, the T/C reads like this: under setting [1], 100 % of control; under setting [2], 104 % of control; under setting [3], 104 % of control; (dose: 200.0 mg/kg/injection, schedule: Q01DX009 (ip), vehicle: saline) 90 % of control; under setting [4], 113 % of control.
